Values quoted from earlier work in US20110262540A1, “Solid Pharmaceutical Composition Comprising Exemestane” (ARROW INTERNATIONAL LIMITED, priority 2008, published 2011).

## C=C1C[C@@H]2[C@H](CC[C@]3(C)C(=O)CC[C@@H]23)[C@@]2(C)C=CC(=O)C=C12 [Exemestane, 6-methylenandrosta-1,4-diene-3,17-dione]
  Solubility in water: practically insoluble in water
